± gives the expanded uncertainty stated by the source.
Details: Gas, Vibrating wire viscometry

FS(F)(F)(F)(F)F [sulfur hexafluoride]
Details	viscosity [mPa·s]
400 K, 16792 kPa	0.07201 ± 0.0013
400 K, 17814 kPa	0.076 ± 0.0014
400 K, 18718 kPa	0.07939 ± 0.0014
400 K, 19958 kPa	0.08386 ± 0.0015
425 K, 94.41 kPa	0.02078 ± 0.00094
425 K, 120.34 kPa	0.0208 ± 0.00094
425 K, 155.2 kPa	0.02081 ± 0.00094
425 K, 171.36 kPa	0.02081 ± 0.00094
425 K, 192.07 kPa	0.02082 ± 0.00094
425 K, 205.12 kPa	0.02083 ± 0.00094
425 K, 228.29 kPa	0.02084 ± 0.00094
425 K, 263.75 kPa	0.02085 ± 0.00094
425 K, 289.54 kPa	0.02086 ± 0.00094
425 K, 311.35 kPa	0.02086 ± 0.00094
425 K, 345.33 kPa	0.02088 ± 0.00094
425 K, 374.1 kPa	0.02088 ± 0.00094
425 K, 392.73 kPa	0.02089 ± 0.00094
425 K, 424.79 kPa	0.0209 ± 0.00094
425 K, 466.85 kPa	0.02092 ± 0.00094
425 K, 503.16 kPa	0.02093 ± 0.00094
425 K, 552.86 kPa	0.02095 ± 0.00094
425 K, 598.07 kPa	0.02097 ± 0.00094
425 K, 629.86 kPa	0.02098 ± 0.00094
425 K, 668.63 kPa	0.021 ± 0.00094
425 K, 715.37 kPa	0.02101 ± 0.00094
425 K, 764.24 kPa	0.02103 ± 0.00094
425 K, 813.31 kPa	0.02105 ± 0.00094
425 K, 867.54 kPa	0.02108 ± 0.00094
425 K, 939.66 kPa	0.02111 ± 0.00094
425 K, 997 kPa	0.02114 ± 0.00094
425 K, 1067.1 kPa	0.02117 ± 0.00094
425 K, 1141.5 kPa	0.02121 ± 0.00094
425 K, 1213.4 kPa	0.02124 ± 0.00094
425 K, 1299.4 kPa	0.02129 ± 0.00094
425 K, 1385.6 kPa	0.02133 ± 0.00094
425 K, 1442.8 kPa	0.02137 ± 0.00094
425 K, 1506.3 kPa	0.02141 ± 0.00094
425 K, 1587.6 kPa	0.02145 ± 0.00094
425 K, 1656.3 kPa	0.02149 ± 0.00094
425 K, 1757.6 kPa	0.02155 ± 0.00094
425 K, 1833.5 kPa	0.0216 ± 0.00094
425 K, 1920.5 kPa	0.02166 ± 0.00094
425 K, 2344.2 kPa	0.02196 ± 0.00094
425 K, 2479.6 kPa	0.02206 ± 0.00094
425 K, 2578.5 kPa	0.02214 ± 0.00095
425 K, 2931.1 kPa	0.02244 ± 0.00095
425 K, 3150.4 kPa	0.02264 ± 0.00095
425 K, 3325.5 kPa	0.02282 ± 0.00095
425 K, 3586.1 kPa	0.02307 ± 0.00095
425 K, 3797.1 kPa	0.0233 ± 0.00096
425 K, 4066.4 kPa	0.02362 ± 0.00096
425 K, 4298.8 kPa	0.02388 ± 0.00096
425 K, 4546.2 kPa	0.0242 ± 0.00096
425 K, 4863.6 kPa	0.02464 ± 0.00097
425 K, 5124.6 kPa	0.02501 ± 0.00097
425 K, 5454.2 kPa	0.02553 ± 0.00097
425 K, 5739.4 kPa	0.026 ± 0.00098
425 K, 6056.4 kPa	0.02654 ± 0.00098
425 K, 6339.5 kPa	0.02706 ± 0.00098
425 K, 6654.3 kPa	0.02768 ± 0.00099
425 K, 7006 kPa	0.0284 ± 0.001
425 K, 7363.2 kPa	0.02921 ± 0.001
425 K, 7712.7 kPa	0.03006 ± 0.001
425 K, 8064.1 kPa	0.03097 ± 0.001
425 K, 8392.3 kPa	0.03179 ± 0.001
425 K, 8760.7 kPa	0.03277 ± 0.001
425 K, 9135.4 kPa	0.03386 ± 0.001
425 K, 9514.5 kPa	0.03501 ± 0.001
425 K, 9876.1 kPa	0.03614 ± 0.0011
425 K, 10296 kPa	0.03744 ± 0.0011
425 K, 10899 kPa	0.03948 ± 0.0011
425 K, 11563 kPa	0.04171 ± 0.0011
425 K, 11725 kPa	0.04223 ± 0.0011
425 K, 12199 kPa	0.04389 ± 0.0011
425 K, 12731 kPa	0.04579 ± 0.0011
425 K, 13246 kPa	0.04767 ± 0.0011
425 K, 14152 kPa	0.0509 ± 0.0012
425 K, 14767 kPa	0.05309 ± 0.0012
425 K, 15462 kPa	0.05563 ± 0.0012
425 K, 16201 kPa	0.05822 ± 0.0012
425 K, 17025 kPa	0.06094 ± 0.0012
425 K, 17904 kPa	0.06397 ± 0.0013
425 K, 18751 kPa	0.06707 ± 0.0013
425 K, 19579 kPa	0.06993 ± 0.0013
425 K, 20442 kPa	0.07271 ± 0.0014

— the NIST ThermoML archive (doi:10.1021/je049612f)
